# Data published in patent US5192507A (priority 1991, dated 1993).
# Values joined by “and” are separate entries in the source; they are usually repeats but may differ in a detail not shown here. Identical values can stand only once.
# What was measured:
# [1] = test system: acetylcholine receptor (AChR); format: binding, Electrophorus electricus
# opiate receptor (OpR) = format: binding, rat
# [2] = test system: acetylcholine receptor (AChR); format: binding, Electrophorus electricus; remark: listed apart in the source
molecule,measurement,setting,value
CCCCCCCC[N+](C)(C)CCCS(=O)(=O)[O-] [Zwittergent ™ 3-08],% Activity Increase (AChR membrane activity),[1],55%
CCCCCCCCCC[N+](C)(C)CCCS(=O)(=O)[O-] [Zwittergent ™ 3-10],% Activity Increase (AChR membrane activity),[1],13%
CN1CC[C@]23CCCC[C@H]2[C@H]1Cc1ccc(O)cc13 [Levorphanol],Δ% (difference between resistance changes of test and control chips),opiate receptor (OpR),10%
same,ΔK.OMEGA. (change in resistance across the biosensor circuit),opiate receptor (OpR),-160
Triton ™ X-100,increase in retention of binding activity of AChR,[1],more than 90%
OC[C@H]1OC(O)[C@H](O)[C@@H](O)[C@@H]1O (stereo partly shown) [Glucose],% Change with respect to control sensor,[2],3% and 0% and 6% and 5%
same,change in resistance between control and AChR sensors (in words),[2],no change
